Converted amounts (≈) assume the structure as drawn. Some results are limits rather than exact numbers.

Common to all, as to format: cell-based, Staphylococcus aureus
The subject of assay [1] is Staph aureus 1146. In words: MIC in Mueller-Hinton Broth with 50% pooled inactivated human serum, Assay 1, Table 12. Conditions: for MIC: Staphylococcus aureus, 1146, Staph aureus 1146, Assay 1, 50% human serum, read-out: MIC, column C; for MIC, column C: Staph aureus 1146, Assay 1, 50% human serum. Here is the method:
(§1) The assays described herein include a panel of bacterial isolates of Staphylococcus aureus. Assay 1 comprises the strains noted in Columns A through E, and Assay 2 comprises the strains noted in Columns F through H. The assays are performed in microtiter trays according to Methods for Dilution Antimicrobial Susceptibility Tests for Bacteria that Grow Aerobically; Approved Standard-7th edition (M7-A7) and interpreted according to the Performance Standards for Antimicrobial Susceptibility Testing; 16th Informational Supplement (M100-S16) published by Clinical Laboratory Standards Institute (CLSI). The antibacterial activity is presented in the form of a minimum inhibitory concentration (MIC) value in μg/ml format. The MIC value represents the lowest concentration of drug measured which prevented macroscopically visible growth under the conditions and specific doses tested. The compounds were initially dissolved in DMSO as 30 mM stocks and diluted accordingly to adjust to a concentration of 10 mg/ml or the compounds were dissolved in DMSO at a concentration of 10 mg/ml. For assessment of activity in the presence of human serum, S. aureus 1146 and S. aureus 1031 were inoculated into Mueller-Hinton Broth with 50% pooled inactivated human serum. In some cases, compounds were tested more than once in a particular assay. Where noted, the MIC value shown in Table 12 represents the geometric mean of the data from multiple runs.
(§2) It should be understood that the data in columns A-H represents MIC data in μg/ml and the notation “<=” means ‘less than or equal to’.

Assay [2] concerns Staph aureus 2812. In words: MIC, microtiter broth dilution (CLSI M7-A7), Assay 1, Table 12 column E, no serum. Conditions: for MIC: Staphylococcus aureus, 2812, Staph aureus 2812, Assay 1, no serum; for MIC, column E: Staph aureus 2812, Assay 1, no serum. Here is the method: as §1, §2
The test system of assay [3] is Staph aureus 1095 MRSA. In words: MIC, microtiter broth dilution (CLSI M7-A7), Assay 1, Table 12 column A, no serum. The note with it: Assay 1, no serum; for MIC: Staphylococcus aureus, MRSA. Here is the method: as §1, §2
Assay [4] has as its system Staph aureus 1146. The assay is described as follows: MIC, microtiter broth dilution (CLSI M7-A7), Assay 1, Table 12 column B, no serum. The note with it: for MIC: Staphylococcus aureus, 1146, Staph aureus 1146, Assay 1, no serum; for MIC, column B: Staph aureus 1146, Assay 1, no serum. Here is the method:
as §1, §2

The test system of assay [5] is Staph aureus 2811. The assay is described as follows: MIC, microtiter broth dilution (CLSI M7-A7), Assay 1, Table 12 column D, no serum. The note with it: for MIC: Staphylococcus aureus, 2811, Staph aureus 2811, Assay 1, no serum; for MIC, column D: Staph aureus 2811, Assay 1, no serum. Here is the method:
as §1, §2

For the molecule `COc1ccc2ncc(Cl)c([C@@H](O)CNC3(C(=O)O)CCCN(C4CC(c5ccccc5)C4)CC3)c2c1` (single isomer, unassigned) [Example 147], the MIC in assay [1] came out at 4 µg/mL (≈ 7.63 µM); in assay [2], 1 µg/mL (≈ 1.91 µM); in assay [3], 8 µg/mL (≈ 15.3 µM); in assay [4], 1 µg/mL (≈ 1.91 µM); in assay [5], 1 µg/mL (≈ 1.91 µM).
As to `COc1ccc2ncc(Cl)c([C@@H](O)CNC3(C(=O)O)CCCN(C4CC(c5ccccc5)C4)CC3)c2c1` (single isomer, unassigned) [Example 148], the “MIC, column C” value in assay [1] was determined as 4 µg/mL (≈ 7.63 µM). Besides, the “MIC, column E” value in assay [2] was 1 µg/mL (≈ 1.91 µM). The “MIC, column A” value in assay [3] was found to be 4 µg/mL (≈ 7.63 µM). The “MIC, column B” value in assay [4] is 1 µg/mL (≈ 1.91 µM). The “MIC, column D” value in assay [5] came to 1 µg/mL (≈ 1.91 µM).
As to `COc1ccc2ncc(F)c([C@@H](O)CNC3(C(=O)O)CCCN(C4CC(c5ccccc5)C4)CC3)c2c1` (single isomer, unassigned) [Example 149], the MIC in assay [1] was found to be 4 µg/mL (≈ 7.88 µM); in assay [2], 2 µg/mL (≈ 3.94 µM); in assay [3], 8 µg/mL (≈ 15.8 µM); in assay [4], 2 µg/mL (≈ 3.94 µM); in assay [5] it was 2 µg/mL (≈ 3.94 µM).
As to `COc1ccc2ncc(F)c([C@@H](O)CNC3(C(=O)O)CCCN(C4CC(c5ccccc5)C4)CC3)c2c1` (single isomer, unassigned) [Example 150], in assay [1], the “MIC, column C” value worked out at 4 µg/mL (≈ 7.88 µM). In assay [2], the “MIC, column E” value amounted to 2 µg/mL (≈ 3.94 µM). Also, the “MIC, column A” value in assay [3] came out at 4 µg/mL (≈ 7.88 µM). Moreover, in assay [4], the “MIC, column B” value amounted to 2 µg/mL (≈ 3.94 µM). Besides, in assay [5], the “MIC, column D” value amounted to 2 µg/mL (≈ 3.94 µM).
Regarding `COc1ccc2nccc(C(O)CC[C@@H]3CCN(C4CC(c5ccc(C)cc5)C4)C[C@@H]3C(=O)O)c2c1` (stereo partly drawn) [Example 6, (3R,4R)-4-[3-hydroxy-3-(6-methoxyquinolin-4-yl)propyl]-1-[3-(4-methylphenyl)cyclobutyl]piperidine-3-carboxylic acid], the minimum inhibitory concentration (MIC) came to 16 µg/mL (≈ 32.7 µM) in assay [1]; 1 µg/mL (≈ 2.05 µM) in assay [2]; 2 µg/mL (≈ 4.09 µM) in assay [3]; 1 µg/mL (≈ 2.05 µM) in assay [4]; 2 µg/mL (≈ 4.09 µM) in assay [5].
`COc1ccc2nccc(C(O)CC[C@@H]3CCN(C4CC(c5ccccc5F)C4)C[C@@H]3C(=O)O)c2c1` (stereo partly drawn) [Example 7, (3R,4R)-1-[3-(2-fluorophenyl)cyclobutyl]-4-[3-hydroxy-3-(6-methoxyquinolin-4-yl)propyl] piperidine-3-carboxylic acid]: the MIC came to 1 µg/mL (≈ 2.03 µM) in assay [1]; 0.125 µg/mL (≈ 0.254 µM) in assay [2]; 0.25 µg/mL (≈ 0.508 µM) in assay [3]; 0.125 µg/mL (≈ 0.254 µM) in assay [4]; 0.125 µg/mL (≈ 0.254 µM) in assay [5].
On to `COc1ccc2nccc(C(O)CC[C@@H]3CCN(C4CC(Oc5ccccc5)C4)C[C@@H]3C(=O)O)c2c1` (stereo partly drawn) [Example 8, (3R,4R)-4-[3-hydroxy-3-(6-methoxyquinolin-4-yl)propyl]-1-(3-phenoxycyclobutyl)piperidine-3-carboxylic acid], for which the MIC was 8 µg/mL (≈ 16.3 µM) in assay [1]; 0.25 µg/mL (≈ 0.51 µM) in assay [2]; 0.25 µg/mL (≈ 0.51 µM) in assay [3]; 0.25 µg/mL (≈ 0.51 µM) in assay [4]; 0.125 µg/mL (≈ 0.255 µM) in assay [5].
For `COc1ccc2nccc(C(CC[C@@H]3CCN(C4CC(c5ccccc5)C4)C[C@@H]3C(=O)O)OC)c2c1` (stereo partly drawn) [Example 10, (3R,4R)-4-[3-methoxy-3-(6-methoxyquinolin-4-yl)propyl]-1-(3-phenylcyclobutyl)piperidine-3-carboxylic acid], the “MIC, column C” value in assay [1] came out at 16 µg/mL (≈ 32.7 µM). For the same molecule, the “MIC, column E” value in assay [2] came out at 0.5 µg/mL (≈ 1.02 µM). The same molecule yielded an MIC in assay [3] of 1 µg/mL (≈ 2.05 µM). Also, in assay [4], the “MIC, column B” value is 0.5 µg/mL (≈ 1.02 µM). Besides, the “MIC, column D” value in assay [5] was 0.5 µg/mL (≈ 1.02 µM).
As for `COc1ccc2nccc(C(CC[C@@H]3CCN(C4CC(c5ccccc5)C4)C[C@@H]3C(=O)O)OC)c2c1` (stereo partly drawn) [Example 11, (3R,4R)-4-[3-methoxy-3-(6-methoxyquinolin-4-yl)propyl]-1-(3-phenylcyclobutyl)piperidine-3-carboxylic acid], the “MIC, column C” value in assay [1] is >64 µg/mL. In addition, in assay [2], the “MIC, column E” value was 2 µg/mL (≈ 4.09 µM). For the same molecule, the “MIC, column A” value in assay [3] was 1 µg/mL (≈ 2.05 µM). Moreover, the “MIC, column B” value in assay [4] stood at 2 µg/mL (≈ 4.09 µM). Also, the “MIC, column D” value in assay [5] stood at 2 µg/mL (≈ 4.09 µM).
Consider `COc1ccc2nccc(C(O)CC[C@@H]3CCN(C4CC(c5ccccc5)C4)CC3(C)C(=O)O)c2c1` (stereo partly drawn) [Example 12, (4R)-4-[3-hydroxy-3-(6-methoxyquinolin-4-yl)propyl]-3-methyl-1-(3-phenylcyclobutyl) piperidine-3-carboxylic acid], for which the “MIC, column C” value in assay [1] came to 8 µg/mL (≈ 16.4 µM). In addition, the minimal inhibitory concentration (MIC) in assay [2] was determined as 2 µg/mL (≈ 4.09 µM); in assay [3], 4 µg/mL (≈ 8.19 µM); in assay [4], 2 µg/mL (≈ 4.09 µM); in assay [5], 2 µg/mL (≈ 4.09 µM).
For the molecule `COc1ccc2nccc(C(O)CC[C@@H]3CCN(C4CC(c5ccccc5)C4)CC3(C)C(=O)O)c2c1` (stereo partly drawn) [Example 13, (4R)-4-[3-hydroxy-3-(6-methoxyquinolin-4-yl)propyl]-3-methyl-1-(3-phenylcyclobutyl) piperidine-3-carboxylic acid], the “MIC, column C” value in assay [1] is 32 µg/mL (≈ 65.5 µM). Besides, the “MIC, column E” value in assay [2] turned out to be 2 µg/mL (≈ 4.09 µM). Also, the “MIC, column A” value in assay [3] was determined as 4 µg/mL (≈ 8.19 µM). Moreover, in assay [4], the “MIC, column B” value came to 4 µg/mL (≈ 8.19 µM). Also, the “MIC, column D” value in assay [5] is 2 µg/mL (≈ 4.09 µM).
For the molecule `COc1ccc2ncc(F)c(C(O)CC[C@@H]3CCN(C4CC(c5c(F)cccc5F)C4)C[C@@H]3C(=O)O)c2c1` (stereo partly drawn) [Example 17, (3R,4R)-1-[3-(2,6-difluorophenyl)cyclobutyl]-4-[3-(3-fluoro-6-methoxyquinolin-4-yl)-3-hydroxypropyl]piperidine-3-carboxylic acid], the MIC is 0.5 µg/mL (≈ 0.946 µM) in assay [1]; ≤ 0.0625 µg/mL in assay [2]; ≤ 0.0625 µg/mL in assay [3]; ≤ 0.0625 µg/mL in assay [4]; ≤ 0.0625 µg/mL in assay [5].
Take `COc1ccc2nccc(C(O)CC[C@@H]3CCN(C4CC(c5ccccn5)C4)C[C@@H]3C(=O)O)c2c1` (stereo partly drawn) [Example 21, (3R,4R)-4-[3-hydroxy-3-(6-methoxyquinolin-4-yl)propyl]-1-(3-pyridin-2-ylcyclobutyl)piperidine-3-carboxylic acid]: the MIC in assay [1] came to 16 µg/mL (≈ 33.6 µM); in assay [2] it was 4 µg/mL (≈ 8.41 µM); in assay [3], 16 µg/mL (≈ 33.6 µM); in assay [4] it was 4 µg/mL (≈ 8.41 µM); in assay [5] it was 4 µg/mL (≈ 8.41 µM).
For `COc1ccc2nccc(C(O)CC[C@@H]3CCN(C4CC(c5cc(C)sn5)C4)C[C@@H]3C(=O)O)c2c1` (stereo partly drawn) [Example 22, (3R,4R)-4-[3-hydroxy-3-(6-methoxyquinolin-4-yl)propyl]-1-[3-(5-methylisothiazol-3-yl)cyclobutyl] piperidine-3-carboxylic acid], the minimal inhibitory concentration (MIC) came out at 8 µg/mL (≈ 16.1 µM) in assay [1]; 2 µg/mL (≈ 4.04 µM) in assay [2]; 4 µg/mL (≈ 8.07 µM) in assay [3]; 1 µg/mL (≈ 2.02 µM) in assay [4]; 1 µg/mL (≈ 2.02 µM) in assay [5].
For `COc1ccc2ncc(F)c(CCCC3(C(=O)O)CCN(C4CC(c5ccccc5)C4)CC3)c2c1` (centres unmarked) [Example 23, 4-[3-(3-fluoro-6-methoxyquinolin-4-yl)propyl]-1-(3-phenylcyclobutyl)piperidine-4-carboxylic acid], the MIC in assay [1] was > 64 µg/mL; in assay [2], ≤ 0.0625 µg/mL; in assay [3], ≤ 0.0625 µg/mL; in assay [4], ≤ 0.0625 µg/mL; in assay [5] it was ≤ 0.0625 µg/mL.
`COc1ccc2ncc(F)c(C(O)CCC3(C(=O)O)CCN(C4CC(c5ccccc5)C4)CC3)c2c1` (centres unmarked) [Example 24, 4-[3-(3-fluoro-6-methoxyquinolin-4-yl)-3-hydroxypropyl]-1-(3-phenylcyclobutyl)piperidine-4-carboxylic acid]: the MIC is > 64 µg/mL in assay [1]; 8 µg/mL (≈ 16.2 µM) in assay [2]; 16 µg/mL (≈ 32.5 µM) in assay [3]; 4 µg/mL (≈ 8.12 µM) in assay [4]; 4 µg/mL (≈ 8.12 µM) in assay [5].
